Measurements as given in PMC5927461, “Activation of host transient receptor potential (TRP) channels by praziquantel stereoisomers” (PLoS Neglected Tropical Diseases, 2018).

How the values were obtained:
TRPM5 = target: T1, TRPM5 (Homo sapiens, UniProt Q9NZQ8); experiment: TRP channel panel primary screen (membrane potential dye, stable CHO line); format: cell-based; details: 0.3-300μM
T1 sequence (Q9NZQ8 1-1165): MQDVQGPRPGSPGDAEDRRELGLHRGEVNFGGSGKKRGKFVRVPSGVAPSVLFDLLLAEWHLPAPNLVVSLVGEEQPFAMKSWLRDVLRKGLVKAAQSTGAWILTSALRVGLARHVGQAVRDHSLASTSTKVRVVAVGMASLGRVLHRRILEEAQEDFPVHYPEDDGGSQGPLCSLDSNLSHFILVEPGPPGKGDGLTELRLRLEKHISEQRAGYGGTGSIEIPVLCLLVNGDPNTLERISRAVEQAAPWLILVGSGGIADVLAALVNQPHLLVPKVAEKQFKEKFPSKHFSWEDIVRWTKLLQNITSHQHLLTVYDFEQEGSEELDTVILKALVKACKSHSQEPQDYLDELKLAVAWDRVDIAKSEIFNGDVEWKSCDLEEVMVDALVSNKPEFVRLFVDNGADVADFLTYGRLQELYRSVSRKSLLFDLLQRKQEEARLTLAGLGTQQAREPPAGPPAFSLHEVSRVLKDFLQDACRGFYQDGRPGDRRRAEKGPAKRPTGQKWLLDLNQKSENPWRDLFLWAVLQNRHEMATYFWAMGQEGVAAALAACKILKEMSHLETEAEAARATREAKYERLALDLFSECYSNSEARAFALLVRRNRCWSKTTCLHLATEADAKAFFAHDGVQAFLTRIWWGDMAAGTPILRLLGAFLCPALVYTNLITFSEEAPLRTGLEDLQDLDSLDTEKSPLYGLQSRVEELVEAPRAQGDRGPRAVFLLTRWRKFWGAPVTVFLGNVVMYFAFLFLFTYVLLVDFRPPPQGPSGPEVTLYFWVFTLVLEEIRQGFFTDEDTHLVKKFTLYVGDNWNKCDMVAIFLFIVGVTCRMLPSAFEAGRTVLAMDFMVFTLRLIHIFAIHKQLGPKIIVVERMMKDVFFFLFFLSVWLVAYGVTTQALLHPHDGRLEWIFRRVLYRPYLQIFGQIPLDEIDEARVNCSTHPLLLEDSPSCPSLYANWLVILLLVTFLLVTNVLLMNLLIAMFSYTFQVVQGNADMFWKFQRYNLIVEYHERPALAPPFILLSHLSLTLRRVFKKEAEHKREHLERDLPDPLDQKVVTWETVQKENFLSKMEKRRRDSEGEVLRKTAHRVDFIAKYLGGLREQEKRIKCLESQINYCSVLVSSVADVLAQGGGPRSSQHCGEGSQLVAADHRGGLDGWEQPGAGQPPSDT
Method: ±PZQ, (R)-PZQ and (S)-PZQ were screened against a panel of 17 human TRP channels (SB Drug Discovery, Glasgow). For all hTRPs, except for TRPM5, individual channel constructs were stably expressed in HEK cell lines. TRMP5 was expressed in a stable CHO cell line. In preparation for the assays, cells were trypsinized, counted and seeded (50,000 cells/well) in black, clear-bottomed 96 well plates and incubated overnight. […] Plates were screened using a Flexstation (Molecular Devices, FX01138), monitoring fluorescence values every ~1.52 seconds. For ‘agonist mode’ testing, 10μl of the appropriate test compound, or standard agonist, was added after 20 seconds and fluorescence monitored for 2 minutes at λex = 485nm, λem = 525nm for Ca^2+ imaging and λex = 530nm, λem = 565nm for membrane potential measurements. […]

TRPV1 = TRPV1 (Homo sapiens, UniProt Q8NER1); experiment: Single cell confocal Ca2+ imaging (fluo-4) in transfected HEK293 cells; format: cell-based; parameters: host or cells: HEK293 (ATCC CRL-1573.3), transient; details: capsaicin 1μM, ±PZQ 100μM
Chain of TRPV1 (Q8NER1 whole entry, the tested form may be a part): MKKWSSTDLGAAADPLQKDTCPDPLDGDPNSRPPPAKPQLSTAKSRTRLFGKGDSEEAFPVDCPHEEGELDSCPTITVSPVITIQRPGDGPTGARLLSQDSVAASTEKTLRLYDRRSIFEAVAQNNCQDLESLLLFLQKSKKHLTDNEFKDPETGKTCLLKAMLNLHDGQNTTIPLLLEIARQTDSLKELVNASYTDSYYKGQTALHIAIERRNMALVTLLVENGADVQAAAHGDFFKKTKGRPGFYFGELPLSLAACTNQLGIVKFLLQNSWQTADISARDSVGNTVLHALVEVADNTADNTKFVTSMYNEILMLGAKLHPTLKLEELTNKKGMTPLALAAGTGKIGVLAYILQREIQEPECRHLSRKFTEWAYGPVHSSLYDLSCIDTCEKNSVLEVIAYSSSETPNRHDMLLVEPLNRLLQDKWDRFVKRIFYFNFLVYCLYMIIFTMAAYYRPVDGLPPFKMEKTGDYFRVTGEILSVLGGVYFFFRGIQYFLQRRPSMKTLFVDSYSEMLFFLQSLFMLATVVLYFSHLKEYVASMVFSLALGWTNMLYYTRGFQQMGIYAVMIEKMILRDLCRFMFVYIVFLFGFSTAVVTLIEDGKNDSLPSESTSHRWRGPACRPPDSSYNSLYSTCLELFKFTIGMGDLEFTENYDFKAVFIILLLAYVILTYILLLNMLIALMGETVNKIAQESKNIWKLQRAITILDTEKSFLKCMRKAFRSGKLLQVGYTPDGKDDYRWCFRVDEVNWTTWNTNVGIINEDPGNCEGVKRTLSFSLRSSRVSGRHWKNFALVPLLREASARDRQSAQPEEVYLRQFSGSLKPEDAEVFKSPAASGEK
From the text: Human TRPM8 cDNA was a VersaClone from R&D Systems (RDC0188). Plasmids encoding human TRPA1 and human TRPV1 cDNA were purchased from DNASU plasmid repository (HsCD00080227 and HsCD00081472, respectively). The TRP channel coding sequences were subcloned into pCS2+ to introduce a COOH-term myc tag using the InFusion HD method (Clontech), HindIII/XhoI restriction enzymes (NEB) and the following primers: TRPM8 F–TGGGGACGTCGGAGC-aagctt-[…]; TRPM8 R–AAATCGATGGGATGC-ctcgag-[…]; TRPA1 F-GGACGTCGGAGC-aagctt- atgaagcgcagcctgagg; TRPA1 R-TCGATGGGATGC-ctcgag-[…]; TRPV1 F–GGACGTCGGAGC-aagctt-[…]; TRPV1 R-TCGATGGGATGC-ctcgag-cttctccccggaagcgg (where upper case specifies vector-specific sequences, italics indicate restriction sites, and lower case indicates TRP channel specific sequences). Primers are listed in a 5’ to 3’ orientation.
HEK293 cells (ATCC CRL-1573.3) were cultured in DMEM supplemented with 10% fetal bovine serum (FBS), penicillin (100 units/ml), streptomycin (100 μg/ml), and L-glutamine (290 μg/ml). Cells were transiently transfected (Lipofectamine LTX, Thermo Fisher) at a density of 2x10^6 cells per T-25 cell-culture flask with TRP channel cDNA. For Ca^2+ imaging assays, HEK293 cells were seeded onto 8-chambered coverglass slides (Thermo Fisher, 115411PK), at a density of 1x10^4 cells one day prior to imaging. Cells were washed twice with HBSS, and incubated with fluo-4-AM (4μM), pluronic F127 (0.4%) and probenecid (2.5mM) for 25 minutes at room temperature. Cells were then washed twice with HBSS, and left at room temperature (30 minutes) for de-esterification. Dishes were mounted on an Olympus IX81 microscope and fluorescence changes (λex = 488nM, λem = 513±15nm bandpass filter) monitored using a Yogokawa spinning disk confocal (CSU-X-M1N) and an Andor iXon Ultra 888 EMCCD camera.

[1] = tested on: mouse mesenteric arteries; experiment: Wire myography, mesenteric artery strips at resting (basal) tone; details: 100μM added at basal tone

Row | activation of TRPM5 in primary screen (TRPM5) | Ca2+ signal in TRPV1 expressing cells (TRPV1) | Structure (SMILES) | change of tension at resting tone [1]
1 | not activated |  | O=C(C1CCCCC1)N1CC(=O)N2CCc3ccccc3[C@H]2C1 [(S)-PZQ] | 
2 |  | No responses | O=C(C1CCCCC1)N1CC(=O)N2CCc3ccccc3C2C1 (racemic) [±PZQ, praziquantel] | marked contraction
